Test results published in patent publication US4904462A, “Multiply-tritiated steroidal-20,17-spirolactones and their use as tracer compounds” (Schering Aktiengesellschaft, priority 1984, dated 1990).

Columns and labels:
[1] = molecular target: T1, glucocorticoid receptor (Rattus norvegicus, UniProt P06536); assay: Relative binding affinity, glucocorticoid receptor, liver cytosol, 3H-dexamethasone displacement; conditions: for Relative binding affinity (RBA), Glucocorticoid Receptor: rat liver cytosol, 3H-dexamethasone 8 nmol/l, dexamethasone = 100% RBA
T1 construct: Cytosol from human uterus, rat kidneys and rat livers was prepared by homogenizing the tissues; from tissue; host or cells: rat liver cytosol
T1 sequence (P06536 1-795): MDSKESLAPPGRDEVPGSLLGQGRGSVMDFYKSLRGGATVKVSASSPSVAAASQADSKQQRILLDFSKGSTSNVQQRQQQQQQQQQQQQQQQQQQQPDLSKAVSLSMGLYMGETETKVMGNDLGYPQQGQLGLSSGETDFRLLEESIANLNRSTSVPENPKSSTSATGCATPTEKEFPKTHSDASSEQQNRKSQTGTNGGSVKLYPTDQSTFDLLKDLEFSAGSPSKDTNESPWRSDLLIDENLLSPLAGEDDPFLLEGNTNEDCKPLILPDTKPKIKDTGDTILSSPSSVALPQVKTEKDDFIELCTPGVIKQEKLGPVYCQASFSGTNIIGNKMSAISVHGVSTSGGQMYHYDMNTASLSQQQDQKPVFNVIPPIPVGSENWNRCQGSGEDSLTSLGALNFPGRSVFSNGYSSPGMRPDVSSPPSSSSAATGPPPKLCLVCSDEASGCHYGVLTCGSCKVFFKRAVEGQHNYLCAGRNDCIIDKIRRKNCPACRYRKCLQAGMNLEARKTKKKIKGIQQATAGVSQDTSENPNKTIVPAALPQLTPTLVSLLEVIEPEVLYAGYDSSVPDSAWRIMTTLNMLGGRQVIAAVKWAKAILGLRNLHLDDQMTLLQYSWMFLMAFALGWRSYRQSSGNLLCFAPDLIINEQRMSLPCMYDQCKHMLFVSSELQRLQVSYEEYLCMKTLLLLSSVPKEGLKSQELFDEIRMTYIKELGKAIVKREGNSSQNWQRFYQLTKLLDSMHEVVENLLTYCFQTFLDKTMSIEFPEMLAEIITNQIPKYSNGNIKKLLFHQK
Procedure: (§1) The relative binding affinities (RBA values) of aldosterone, prorenone as well as the compounds of this invention were determined, for the progesterone receptor, in human uterus cytosol, for the glucocorticoid receptor, in liver cytosol, and for the mineralocorticoid receptor, in the kidney cytosol of adrenalectomized rats. The relative binding affinity with respect to CBG was measured in the serum of pregnant women, diluted 1:30.
(§2) Cytosol from human uterus, rat kidneys and rat livers was prepared by homogenizing the tissues under cooling with the addition of receptor-stabilizing buffer (10 mmol/1 of KH2 PO4, 10 mmol/1 of K2 HPO4, 1.5 mmol/1 of EDTA, 3 mmol/1 of NaN3, 5 mmol/1 of monothioglycerol, 10% glycerol, pH 7.5). The homogenate was then centrifuged for 30 minutes at 105,000×g. The thus-formed supernatant centrifugation liquor corresponds to the tissue cytosol utilized for receptor testing. Then, in each case, 50 μl of a ^3 H-steroid (^3 H-R5020) for progesterone receptor testing, ^3 H-dexamethasonefor glucocorticoid receptor testing, ^3 H-aldosterone for mineralocorticoid receptor testing), dissolved in a buffer, was pipetted into test tubes (final concentration 8 nmol/1). Thereafter, the various steroids to be tested (in respectively six different concentrations: 10^-10 to 10^-5 mol/1) in 50 μl of buffer were added to the incubating tubes. Finally, 100 μl of cytosol was introduced into each tube by pipetting, and the incubation batch was thoroughly mixed and incubated overnight at 0°-4° C. Incubation was terminated by adding 0.5 ml of dextran-layered activated carbon (DCC) in a buffer. After 10 minutes of incubation under cooling, DCC was removed by centrifuging and thus the free, not receptor-bound steroid was separated from the receptor-bound steroid. The radioactivity was measured in the supernatant centrifugation liquors by means of a scintillation counter. All thus-determined values result from triple measurements. The measured dpm values were expressed in % of relative binding affinity, the RBA value referring to 50% displacement of the ^3 H-labeled ligand by its unlabeled authentic steroid (=100% RBA).

[2] = tested on: progesterone receptor; assay: Relative binding affinity, progesterone receptor, human uterus cytosol, 3H-R5020 displacement; conditions: 3H-R5020 8 nmol/l, R5020 = 100% RBA
Procedure: as §1, §2

[3] = molecular target: T2, mineralocorticoid receptor (Rattus norvegicus, UniProt P22199); assay: Relative binding affinity, mineralocorticoid receptor, kidney cytosol, 3H-aldosterone displacement; conditions: kidney cytosol of adrenalectomized rats; 3H-aldosterone 8 nmol/l; aldosterone = 100% RBA
T2 construct: Cytosol from human uterus, rat kidneys and rat livers was prepared by homogenizing the tissues; from tissue; host or cells: kidney cytosol of adrenalectomized rats
T2 sequence (P22199 1-981): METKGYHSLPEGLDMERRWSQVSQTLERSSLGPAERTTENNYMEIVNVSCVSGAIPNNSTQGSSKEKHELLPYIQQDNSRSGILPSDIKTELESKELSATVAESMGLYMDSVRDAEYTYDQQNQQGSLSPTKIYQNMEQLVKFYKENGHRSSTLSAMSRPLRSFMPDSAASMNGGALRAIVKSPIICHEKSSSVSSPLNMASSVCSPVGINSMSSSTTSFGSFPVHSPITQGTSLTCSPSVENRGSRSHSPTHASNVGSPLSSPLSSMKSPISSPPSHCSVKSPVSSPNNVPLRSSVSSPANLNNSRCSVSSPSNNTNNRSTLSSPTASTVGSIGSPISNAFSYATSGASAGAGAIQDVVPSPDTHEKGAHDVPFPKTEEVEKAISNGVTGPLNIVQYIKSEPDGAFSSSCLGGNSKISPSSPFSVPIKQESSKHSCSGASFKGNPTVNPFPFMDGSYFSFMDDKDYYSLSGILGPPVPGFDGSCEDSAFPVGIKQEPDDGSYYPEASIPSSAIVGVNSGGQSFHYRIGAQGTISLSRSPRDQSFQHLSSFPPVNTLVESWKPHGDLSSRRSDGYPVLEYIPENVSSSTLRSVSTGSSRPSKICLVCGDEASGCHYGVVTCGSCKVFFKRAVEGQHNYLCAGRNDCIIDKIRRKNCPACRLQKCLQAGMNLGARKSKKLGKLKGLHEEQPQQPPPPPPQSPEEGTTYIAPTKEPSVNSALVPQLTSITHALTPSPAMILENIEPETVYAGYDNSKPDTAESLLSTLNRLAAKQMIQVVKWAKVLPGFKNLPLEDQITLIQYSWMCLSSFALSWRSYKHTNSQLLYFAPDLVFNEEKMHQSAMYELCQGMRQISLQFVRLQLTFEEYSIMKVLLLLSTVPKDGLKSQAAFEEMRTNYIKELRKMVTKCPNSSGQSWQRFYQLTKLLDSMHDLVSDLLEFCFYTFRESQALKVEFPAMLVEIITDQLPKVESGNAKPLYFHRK
Procedure: as §1, §2

[4] = molecular target: T3, CBG (Homo sapiens, UniProt P08185); assay: Relative binding affinity to CBG, serum of pregnant women, 3H-cortisol displacement; conditions: for Relative binding affinity (RBA), CBG: serum of pregnant women diluted 1:30, 3H-cortisol, cortisol = 100% RBA
T3 construct: a 1:30 dilution of the serum of pregnant women as the source of CBG; from tissue; host or cells: serum of pregnant women, diluted 1:30
T3 sequence (P08185 23-405): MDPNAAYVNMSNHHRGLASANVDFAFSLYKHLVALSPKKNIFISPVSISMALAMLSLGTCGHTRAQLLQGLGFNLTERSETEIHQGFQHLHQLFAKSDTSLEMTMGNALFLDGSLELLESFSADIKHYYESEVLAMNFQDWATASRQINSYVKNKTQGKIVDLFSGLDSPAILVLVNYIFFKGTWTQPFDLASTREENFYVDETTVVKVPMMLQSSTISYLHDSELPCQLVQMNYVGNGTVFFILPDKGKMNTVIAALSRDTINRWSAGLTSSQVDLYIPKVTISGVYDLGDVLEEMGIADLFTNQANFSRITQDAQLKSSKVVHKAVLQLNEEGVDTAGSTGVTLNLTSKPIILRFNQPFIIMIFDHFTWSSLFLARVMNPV
Procedure: as §1
As for the RBA values, for CBG an analogous procedure was followed, using ^3 H-cortisol and a 1:30 dilution of the serum of pregnant women as the source of CBG.

[5] = Metabolic stability under the conditions of the receptor test; assay type: in vitro ADME; conditions: in vitro receptor test conditions

In the case of “1α,2α;15β,16β-dimethylene-7α-methoxycarbonyl-3-oxo-17α-[18,19-^3 H4 ]pregn-4-ene-21,17-carbolactone [Example 7]”, the “Relative binding affinity (RBA), Glucocorticoid Receptor” value [1] is reported as 0.2%, the “Relative binding affinity (RBA), Progesterone Receptor” value [2] is reported as 0.2% and the “Relative binding affinity (RBA), Mineralocorticoid Receptor” value [3] is reported as 600%. The “Relative binding affinity (RBA), CBG” value [4] was under 0.1%.

In the case of “6μ,7β;15β,16β-dimethylene-3-oxo-17α-[18,19-^3 H4 ]pregna-1,4-diene-21,17-carbolactone [Example 3]”, the “Relative binding affinity (RBA), Glucocorticoid Receptor” value [1] is reported as 0.9%, the “Relative binding affinity (RBA), Progesterone Receptor” value [2] is reported as 50% and the “Relative binding affinity (RBA), Mineralocorticoid Receptor” value [3] is reported as 90%. For the same compound, the “Relative binding affinity (RBA), CBG” value [4] was under 0.1%.

In the case of “7α-(^3 H3)methoxycarbonyl-15β,16β-methylene-3-oxo-17α-[18,19-^3 H4 ]pregn-4-ene-21,17-carbolactone [Example 4]”, the “Relative binding affinity (RBA), Glucocorticoid Receptor” value [1] is reported as 0.8%, the “Relative binding affinity (RBA), Progesterone Receptor” value [2] is reported as 0.5% and the “Relative binding affinity (RBA), Mineralocorticoid Receptor” value [3] is reported as 400%. The “Relative binding affinity (RBA), CBG” value [4] was under 0.1%.

With “7α-[1'-(^3 H3)-ethoxy]carbonyl-15β,16β-methylene-3-oxo-17α-pregn-4-ene-21,17-carbolactone [Example 8]” the “Relative binding affinity (RBA), Glucocorticoid Receptor” value [1] was 0.8%, the “Relative binding affinity (RBA), Progesterone Receptor” value [2] was 0.95% and the “Relative binding affinity (RBA), Mineralocorticoid Receptor” value [3] was 800%. For the same compound, the “Relative binding affinity (RBA), CBG” value [4] was under 0.1%.

For “7α-[1'-(^3 H3)ethoxy]carbonyl-15β,16β-methylene-3-oxo-17α-pregna-1,4-diene-21,17-carbolactone [Example 6]”, the “Relative binding affinity (RBA), Glucocorticoid Receptor” value [1] was 0.4%, the “Relative binding affinity (RBA), Progesterone Receptor” value [2] was 0.2% and the “Relative binding affinity (RBA), Mineralocorticoid Receptor” value [3] was 600%. For the same compound, the “Relative binding affinity (RBA), CBG” value [4] was under 0.1%.

In the case of C[C@]12CCC(=O)C=C1CC[C@@H]1[C@@H]2[C@@H](O)C[C@]2(C=O)[C@@H](C(=O)CO)CC[C@@H]12 [Aldosterone, reference compound], the “Relative binding affinity (RBA), Glucocorticoid Receptor” value [1] is reported as 30%, the “relative binding affinity in rat liver cytosol” value ([1]; with respect to dexamethasone) is reported as 30% and the “Relative binding affinity (RBA), Progesterone Receptor” value [2] is reported as 0.2%. For the same compound, the “Relative binding affinity (RBA), CBG” value [4] was 6%, the “relative binding affinity (RBA value) to the human serum protein CBG” value ([4]; with respect to cortisol) was 6% and the “metabolic stability under the conditions of the receptor test” value [5] was “is metabolized under in vitro conditions of receptor testing”.

With C[C@]12CCC(=O)C=C1[C@@H]1C[C@@H]1[C@H]1[C@@H]3[C@@H]4C[C@@H]4[C@@]4(CCC(=O)O4)[C@@]3(C)CC[C@@H]12 [Prorenone, reference compound] the “Relative binding affinity (RBA), Glucocorticoid Receptor” value [1] was 3%, the “Relative binding affinity (RBA), Progesterone Receptor” value [2] was 32% and the “Relative binding affinity (RBA), Mineralocorticoid Receptor” value [3] was 200%. For the same compound, the “Relative binding affinity (RBA), CBG” value [4] was under 0.01%.
